Measured values published in PubChem BioAssay (NCI).
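Five compound concentrations were applied to cells in 96-well plates for 48 hours; endpoints were derived by simple linear interpolation of the resulting dose-response curve. TGI marks complete inhibition of growth.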

Key:
Test in all cases: inhibition of tumour cell growth, NCI panel, 48 h
786-0 renal = system: 786-0 renal
A498 renal = system: A498 renal
A549 NSCLC = system: A549 NSCLC
ACHN renal = system: ACHN renal
CAKI-1 renal = system: CAKI-1 renal
CCRF-CEM leukemia = system: CCRF-CEM leukemia
COLO 205 colon = system: COLO 205 colon
DLD-1 colon = system: DLD-1 colon
DMS 114 small cell lung = system: DMS 114 small cell lung
DMS 273 small cell lung = system: DMS 273 small cell lung
EKVX NSCLC = system: EKVX NSCLC
HCC-2998 colon = system: HCC-2998 colon
HCT-116 colon = system: HCT-116 colon
HCT-15 colon = system: HCT-15 colon
HOP-62 NSCLC = system: HOP-62 NSCLC
HT29 colon = system: HT29 colon
IGROV1 ovarian = system: IGROV1 ovarian
K-562 leukemia = system: K-562 leukemia
KM12 colon = system: KM12 colon
KM20L2 colon = system: KM20L2 colon
LOX IMVI melanoma = system: LOX IMVI melanoma
LXFL 529 NSCLC = system: LXFL 529 NSCLC
M14 melanoma = system: M14 melanoma
M19-MEL melanoma = system: M19-MEL melanoma
MALME-3M melanoma = system: MALME-3M melanoma
MOLT-4 leukemia = system: MOLT-4 leukemia
NCI-H226 lung = system: NCI-H226 lung
NCI-H460 lung = system: NCI-H460 lung
NCI-H522 lung = system: NCI-H522 lung
OVCAR-3 ovarian = system: OVCAR-3 ovarian
OVCAR-5 ovarian = system: OVCAR-5 ovarian
OVCAR-8 ovarian = system: OVCAR-8 ovarian
RPMI-8226 leukemia = system: RPMI-8226 leukemia
RXF 393 renal = system: RXF 393 renal
SF-268 CNS = system: SF-268 CNS
SF-295 CNS = system: SF-295 CNS
SF-539 CNS = system: SF-539 CNS
SK-MEL-2 melanoma = system: SK-MEL-2 melanoma
SK-MEL-5 melanoma = system: SK-MEL-5 melanoma
SK-OV-3 ovarian = system: SK-OV-3 ovarian
SN12C renal = system: SN12C renal
SNB-19 CNS = system: SNB-19 CNS
SNB-75 CNS = system: SNB-75 CNS
SNB-78 CNS = system: SNB-78 CNS
SW-620 colon = system: SW-620 colon
TK-10 renal = system: TK-10 renal
U251 CNS = system: U251 CNS
UACC-257 melanoma = system: UACC-257 melanoma
UACC-62 melanoma = system: UACC-62 melanoma
UO-31 renal = system: UO-31 renal
XF 498 CNS = system: XF 498 CNS
HL-60(TB) leukemia = system: HL-60(TB) leukemia
NCI-H23 lung = system: NCI-H23 lung
OVCAR-4 ovarian = system: OVCAR-4 ovarian
SK-MEL-28 melanoma = system: SK-MEL-28 melanoma
SR leukemia = system: SR leukemia
HOP-92 NSCLC = system: HOP-92 NSCLC

In the case of `O=C1CCN2CCC(=O)c3c2c(cc2ccccc32)N1`, the TGI (786-0 renal) is reported as over 100 µM, the TGI (A498 renal) is reported as over 100 µM and the TGI (A549 NSCLC) is reported as over 100 µM. For the same compound, the TGI (ACHN renal) was over 100 µM, the TGI (CAKI-1 renal) was over 100 µM and the TGI (CCRF-CEM leukemia) was over 100 µM. The TGI (COLO 205 colon) was over 100 µM, the TGI (DLD-1 colon) was over 100 µM and the TGI (DMS 114 small cell lung) was over 100 µM. For the same compound, the TGI (DMS 273 small cell lung) was over 100 µM, the TGI (EKVX NSCLC) was over 100 µM and the TGI (HCC-2998 colon) was over 100 µM. It also gave a TGI (HCT-116 colon) of over 100 µM, a TGI (HCT-15 colon) of over 100 µM and a TGI (HOP-62 NSCLC) of over 100 µM. It also gave a TGI (HT29 colon) of over 100 µM, a TGI (IGROV1 ovarian) of over 100 µM and a TGI (K-562 leukemia) of over 100 µM. It also gave a TGI (KM12 colon) of over 100 µM, a TGI (KM20L2 colon) of over 100 µM and a TGI (LOX IMVI melanoma) of over 100 µM. The TGI (LXFL 529 NSCLC) was over 100 µM, the TGI (M14 melanoma) was over 100 µM and the TGI (M19-MEL melanoma) was over 100 µM. For the same compound, the TGI (MALME-3M melanoma) was over 100 µM, the TGI (MOLT-4 leukemia) was over 100 µM and the TGI (NCI-H226 lung) was over 100 µM. The TGI (NCI-H460 lung) was over 100 µM, the TGI (NCI-H522 lung) was over 100 µM and the TGI (OVCAR-3 ovarian) was over 100 µM. For the same compound, the TGI (OVCAR-5 ovarian) was over 100 µM, the TGI (OVCAR-8 ovarian) was over 100 µM and the TGI (RPMI-8226 leukemia) was over 100 µM. For the same compound, the TGI (RXF 393 renal) was over 100 µM, the TGI (SF-268 CNS) was over 100 µM and the TGI (SF-295 CNS) was over 100 µM. For the same compound, the TGI (SF-539 CNS) was over 100 µM, the TGI (SK-MEL-2 melanoma) was over 100 µM and the TGI (SK-MEL-5 melanoma) was over 100 µM. For the same compound, the TGI (SK-OV-3 ovarian) was over 100 µM, the TGI (SN12C renal) was over 100 µM and the TGI (SNB-19 CNS) was over 100 µM. The TGI (SNB-75 CNS) was over 100 µM, the TGI (SNB-78 CNS) was over 100 µM and the TGI (SW-620 colon) was over 100 µM. For the same compound, the TGI (TK-10 renal) was over 100 µM, the TGI (U251 CNS) was over 100 µM and the TGI (UACC-257 melanoma) was over 100 µM. The TGI (UACC-62 melanoma) was over 100 µM, the TGI (UO-31 renal) was over 100 µM and the TGI (XF 498 CNS) was 93.5 µM.
`Cc1nc2c(n1-c1ccccc1)C(=O)c1ccccc1C2=O` showed a TGI (786-0 renal) of over 100 µM, a TGI (A498 renal) of over 100 µM and a TGI (A549 NSCLC) of over 100 µM. For the same compound, the TGI (ACHN renal) was over 100 µM, the TGI (CAKI-1 renal) was over 100 µM and the TGI (CCRF-CEM leukemia) was over 100 µM. For the same compound, the TGI (DLD-1 colon) was over 100 µM, the TGI (DMS 114 small cell lung) was 61.3 µM and the TGI (DMS 273 small cell lung) was over 100 µM. For the same compound, the TGI (EKVX NSCLC) was over 100 µM, the TGI (HCC-2998 colon) was over 100 µM and the TGI (HCT-116 colon) was 73.1 µM. For the same compound, the TGI (HCT-15 colon) was over 100 µM, the TGI (HL-60(TB) leukemia) was 45.1 µM and the TGI (HOP-62 NSCLC) was over 100 µM. For the same compound, the TGI (HT29 colon) was over 100 µM, the TGI (K-562 leukemia) was over 100 µM and the TGI (KM12 colon) was over 100 µM. The TGI (M14 melanoma) was over 100 µM, the TGI (M19-MEL melanoma) was 40.4 µM and the TGI (MALME-3M melanoma) was 34.2 µM. It also gave a TGI (MOLT-4 leukemia) of over 100 µM, a TGI (NCI-H226 lung) of over 100 µM and a TGI (NCI-H23 lung) of over 100 µM. The TGI (NCI-H460 lung) was over 100 µM, the TGI (NCI-H522 lung) was 71.8 µM and the TGI (OVCAR-3 ovarian) was 54.1 µM. For the same compound, the TGI (OVCAR-4 ovarian) was over 100 µM, the TGI (OVCAR-5 ovarian) was over 100 µM and the TGI (OVCAR-8 ovarian) was over 100 µM. It also gave a TGI (RXF 393 renal) of over 100 µM, a TGI (SF-268 CNS) of over 100 µM and a TGI (SF-295 CNS) of over 100 µM. It also gave a TGI (SF-539 CNS) of over 100 µM, a TGI (SK-MEL-2 melanoma) of over 100 µM and a TGI (SK-MEL-28 melanoma) of over 100 µM. For the same compound, the TGI (SK-MEL-5 melanoma) was over 100 µM, the TGI (SK-OV-3 ovarian) was over 100 µM and the TGI (SN12C renal) was over 100 µM. It also gave a TGI (SNB-19 CNS) of over 100 µM, a TGI (SNB-75 CNS) of over 100 µM and a TGI (SNB-78 CNS) of over 100 µM. It also gave a TGI (SR leukemia) of over 100 µM, a TGI (SW-620 colon) of over 100 µM and a TGI (TK-10 renal) of over 100 µM. The TGI (U251 CNS) was over 100 µM, the TGI (UACC-257 melanoma) was 51.5 µM and the TGI (UACC-62 melanoma) was over 100 µM. For the same compound, the TGI (UO-31 renal) was over 100 µM.
`COc1ccccc1NC(=O)C1=C(C)NC(C)=C(C(=O)Nc2ccccc2OC)C1c1ccc(N(C)C)cc1` gave a TGI (786-0 renal) of over 100 µM, a TGI (A498 renal) of over 100 µM and a TGI (A549 NSCLC) of over 100 µM. For the same compound, the TGI (ACHN renal) was over 100 µM, the TGI (CAKI-1 renal) was 89.1 µM and the TGI (CCRF-CEM leukemia) was 52.4 µM. The TGI (COLO 205 colon) was 92.1 µM, the TGI (DLD-1 colon) was 55.1 µM and the TGI (DMS 114 small cell lung) was 65.6 µM. It also gave a TGI (EKVX NSCLC) of over 100 µM, a TGI (HCC-2998 colon) of 38.2 µM and a TGI (HCT-116 colon) of 74.7 µM. The TGI (HL-60(TB) leukemia) was 40.7 µM, the TGI (HOP-62 NSCLC) was 57.2 µM and the TGI (HOP-92 NSCLC) was 38.6 µM. It also gave a TGI (HT29 colon) of over 100 µM, a TGI (IGROV1 ovarian) of over 100 µM and a TGI (K-562 leukemia) of 54.3 µM. For the same compound, the TGI (KM12 colon) was 56.9 µM, the TGI (KM20L2 colon) was 96.8 µM and the TGI (LOX IMVI melanoma) was 42.2 µM. For the same compound, the TGI (LXFL 529 NSCLC) was over 100 µM, the TGI (M14 melanoma) was 69.7 µM and the TGI (M19-MEL melanoma) was over 100 µM. The TGI (MALME-3M melanoma) was over 100 µM, the TGI (MOLT-4 leukemia) was 64.5 µM and the TGI (NCI-H226 lung) was 51.3 µM. It also gave a TGI (NCI-H23 lung) of 82.3 µM, a TGI (NCI-H460 lung) of over 100 µM and a TGI (NCI-H522 lung) of 53.7 µM. For the same compound, the TGI (OVCAR-3 ovarian) was 44.1 µM, the TGI (OVCAR-4 ovarian) was 91.2 µM and the TGI (OVCAR-5 ovarian) was over 100 µM. The TGI (OVCAR-8 ovarian) was 77.3 µM, the TGI (RPMI-8226 leukemia) was 55.4 µM and the TGI (RXF 393 renal) was 68.6 µM. It also gave a TGI (SF-268 CNS) of over 100 µM, a TGI (SF-295 CNS) of over 100 µM and a TGI (SF-539 CNS) of 73.7 µM. The TGI (SK-MEL-2 melanoma) was 48.2 µM, the TGI (SK-MEL-28 melanoma) was 58 µM and the TGI (SK-MEL-5 melanoma) was 96.7 µM. It also gave a TGI (SK-OV-3 ovarian) of 84.5 µM, a TGI (SN12C renal) of over 100 µM and a TGI (SNB-19 CNS) of over 100 µM. The TGI (SNB-75 CNS) was 80.6 µM, the TGI (SNB-78 CNS) was 81.1 µM and the TGI (SW-620 colon) was over 100 µM. The TGI (TK-10 renal) was over 100 µM, the TGI (U251 CNS) was over 100 µM and the TGI (UACC-257 melanoma) was over 100 µM. The TGI (UO-31 renal) was over 100 µM and the TGI (XF 498 CNS) was 57.1 µM.
